Test results from patent US20100267561A1, “HERBICIDAL PYRIDAZINONE DERIVATIVES” (priority 2007, published 2010).

How the values were obtained:
Experiment in all cases: Test E pre-/postemergence plant response
Format in all cases: in vivo
[1] = system: broadleaf signalgrass (Brachiaria platyphylla); details: scale 0 to 100
Outline: (§1)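 Plants scored visually versus controls on a 0–100 scale (100 = complete control) 14 to 21 days after treatment in the greenhouse. Test chemicals in a surfactant-containing non-phytotoxic solvent were applied to soil preemergence or to 1- to 4-leaf plants, 2–18 cm tall.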

[2] = system: common mallow (Malva sylvestris); details: Postemergence, scale 0 to 100
Outline: as §1

[3] = system: common purslane (Portulaca oleracea); details: scale 0 to 100
Outline: as §1

[4] = system: dallisgrass (Paspalum dilatatum); details: scale 0 to 100
Outline: as §1

[5] = system: green foxtail (Setaria viridis); details: scale 0 to 100
Outline: as §1

[6] = system: johnsongrass (Sorghum halepense); details: scale 0 to 100
Outline: as §1

[7] = system: large crabgrass (Digitaria sanguinalis); details: scale 0 to 100
Outline: as §1

[8] = system: purple nutsedge (Cyperus rotundus); details: scale 0 to 100
Outline: as §1

[9] = system: quackgrass (Elytrigia repens); details: scale 0 to 100
Outline: as §1

[10] = system: southern (S.) sandbur (Cenchrus echinatus); details: scale 0 to 100
Outline: as §1

[11] = system: surinam grass (Brachiaria decumbens); details: scale 0 to 100
Outline: as §1

CCc1cc(-c2ccc(Cl)cc2)nn1-c1c(OC(=O)C(C)(C)C)cnn(C)c1=O [Compound 40]
Plant response rating, Signalgrass ([1]; 16 g ai/ha, Preemergence): 95
Plant response rating, Signalgrass ([1]; 31 g ai/ha, Preemergence): 98
Plant response rating, Signalgrass ([1]; 62 g ai/ha, Preemergence): 100
Plant response rating, Signalgrass ([1]; Postemergence, 8 g ai/ha): 75
Plant response rating, Signalgrass ([1]; Postemergence, 16 g ai/ha): 90
Plant response rating, Signalgrass ([1]; Postemergence, 31 g ai/ha): 95
Plant response rating, Signalgrass ([1]; Postemergence, 62 g ai/ha): 100
Plant response rating, Mallow ([2]; 8 g ai/ha): 0
Plant response rating, Mallow ([2]; 16 g ai/ha): 0
Plant response rating, Mallow ([2]; 31 g ai/ha): 0
Plant response rating, Mallow ([2]; 62 g ai/ha): 0
Plant response rating, Purslane ([3]; 16 g ai/ha, Preemergence): 0
Plant response rating, Purslane ([3]; 31 g ai/ha, Preemergence): 0
Plant response rating, Purslane ([3]; 62 g ai/ha, Preemergence): 0
Plant response rating, Purslane ([3]; Postemergence, 8 g ai/ha): 0
Plant response rating, Purslane ([3]; Postemergence, 16 g ai/ha): 0
Plant response rating, Purslane ([3]; Postemergence, 31 g ai/ha): 0
Plant response rating, Purslane ([3]; Postemergence, 62 g ai/ha): 0
Plant response rating, Dallisgrass ([4]; 8 g ai/ha, Preemergence): 80
Plant response rating, Dallisgrass ([4]; 16 g ai/ha, Preemergence): 95
Plant response rating, Dallisgrass ([4]; 31 g ai/ha, Preemergence): 100
Plant response rating, Dallisgrass ([4]; 62 g ai/ha, Preemergence): 100
Plant response rating, Dallisgrass ([4]; Postemergence, 8 g ai/ha): 65
Plant response rating, Dallisgrass ([4]; Postemergence, 16 g ai/ha): 75
Plant response rating, Dallisgrass ([4]; Postemergence, 31 g ai/ha): 80
Plant response rating, Dallisgrass ([4]; Postemergence, 62 g ai/ha): 95
Plant response rating, Foxtail, Green ([5]; 8 g ai/ha, Preemergence): 40
Plant response rating, Foxtail, Green ([5]; 16 g ai/ha, Preemergence): 75
Plant response rating, Foxtail, Green ([5]; 31 g ai/ha, Preemergence): 98
Plant response rating, Foxtail, Green ([5]; 62 g ai/ha, Preemergence): 100
Plant response rating, Foxtail, Green ([5]; Postemergence, 8 g ai/ha): 70
Plant response rating, Foxtail, Green ([5]; Postemergence, 16 g ai/ha): 80
Plant response rating, Foxtail, Green ([5]; Postemergence, 31 g ai/ha): 95
Plant response rating, Foxtail, Green ([5]; Postemergence, 62 g ai/ha): 98
Plant response rating, Johnsongrass ([6]; 16 g ai/ha, Preemergence): 75
Plant response rating, Johnsongrass ([6]; 31 g ai/ha, Preemergence): 75
Plant response rating, Johnsongrass ([6]; 62 g ai/ha, Preemergence): 98
Plant response rating, Johnsongrass ([6]; Postemergence, 8 g ai/ha): 60
Plant response rating, Johnsongrass ([6]; Postemergence, 16 g ai/ha): 60
Plant response rating, Johnsongrass ([6]; Postemergence, 31 g ai/ha): 90
Plant response rating, Johnsongrass ([6]; Postemergence, 62 g ai/ha): 98
Plant response rating, Crabgrass, Large ([7]; 8 g ai/ha, Preemergence): 50
Plant response rating, Crabgrass, Large ([7]; 16 g ai/ha, Preemergence): 70
Plant response rating, Crabgrass, Large ([7]; 31 g ai/ha, Preemergence): 100
Plant response rating, Crabgrass, Large ([7]; 62 g ai/ha, Preemergence): 100
Plant response rating, Crabgrass, Large ([7]; Postemergence, 8 g ai/ha): 75
Plant response rating, Crabgrass, Large ([7]; Postemergence, 16 g ai/ha): 85
Plant response rating, Crabgrass, Large ([7]; Postemergence, 31 g ai/ha): 90
Plant response rating, Crabgrass, Large ([7]; Postemergence, 62 g ai/ha): 95
Plant response rating, Nutsedge, Purple ([8]; 16 g ai/ha, Preemergence): 0
Plant response rating, Nutsedge, Purple ([8]; 31 g ai/ha, Preemergence): 0
Plant response rating, Nutsedge, Purple ([8]; 62 g ai/ha, Preemergence): 0
Plant response rating, Nutsedge, Purple ([8]; Postemergence, 8 g ai/ha): 0
Plant response rating, Nutsedge, Purple ([8]; Postemergence, 16 g ai/ha): 0
Plant response rating, Nutsedge, Purple ([8]; Postemergence, 31 g ai/ha): 0
Plant response rating, Nutsedge, Purple ([8]; Postemergence, 62 g ai/ha): 0
Plant response rating, Quackgrass ([9]; 16 g ai/ha, Preemergence): 60
Plant response rating, Quackgrass ([9]; 31 g ai/ha, Preemergence): 80
Plant response rating, Quackgrass ([9]; 62 g ai/ha, Preemergence): 90
Plant response rating, Quackgrass ([9]; Postemergence, 8 g ai/ha): 30
Plant response rating, Quackgrass ([9]; Postemergence, 16 g ai/ha): 50
Plant response rating, Quackgrass ([9]; Postemergence, 31 g ai/ha): 70
Plant response rating, Quackgrass ([9]; Postemergence, 62 g ai/ha): 95
Plant response rating, Sandbur, S. ([10]; 16 g ai/ha, Preemergence): 98
Plant response rating, Sandbur, S. ([10]; 31 g ai/ha, Preemergence): 100
Plant response rating, Sandbur, S. ([10]; 62 g ai/ha, Preemergence): 100
Plant response rating, Sandbur, S. ([10]; Postemergence, 8 g ai/ha): 75
Plant response rating, Sandbur, S. ([10]; Postemergence, 16 g ai/ha): 85
Plant response rating, Sandbur, S. ([10]; Postemergence, 31 g ai/ha): 95
Plant response rating, Sandbur, S. ([10]; Postemergence, 62 g ai/ha): 100
Plant response rating, Surinam Grass ([11]; 16 g ai/ha, Preemergence): 100
Plant response rating, Surinam Grass ([11]; 31 g ai/ha, Preemergence): 100
Plant response rating, Surinam Grass ([11]; 62 g ai/ha, Preemergence): 100
Plant response rating, Surinam Grass ([11]; Postemergence, 8 g ai/ha): 90
Plant response rating, Surinam Grass ([11]; Postemergence, 16 g ai/ha): 90
Plant response rating, Surinam Grass ([11]; Postemergence, 31 g ai/ha): 100
Plant response rating, Surinam Grass ([11]; Postemergence, 62 g ai/ha): 100
